Drawing on patent US8299048B2, “Hexahydrocyclopentyl[f]indazole sulfonamides and derivatives thereof as selective glucocorticoid receptor modulators” (Merck Sharp & Dohme Corp., priority 2008, dated 2012), this text covers Ki for 16 compounds.

In the test the target is T1, glucocorticoid receptor (Homo sapiens, UniProt P04150).
T1 construct: endogenous in cells
T1 sequence (P04150 1-777): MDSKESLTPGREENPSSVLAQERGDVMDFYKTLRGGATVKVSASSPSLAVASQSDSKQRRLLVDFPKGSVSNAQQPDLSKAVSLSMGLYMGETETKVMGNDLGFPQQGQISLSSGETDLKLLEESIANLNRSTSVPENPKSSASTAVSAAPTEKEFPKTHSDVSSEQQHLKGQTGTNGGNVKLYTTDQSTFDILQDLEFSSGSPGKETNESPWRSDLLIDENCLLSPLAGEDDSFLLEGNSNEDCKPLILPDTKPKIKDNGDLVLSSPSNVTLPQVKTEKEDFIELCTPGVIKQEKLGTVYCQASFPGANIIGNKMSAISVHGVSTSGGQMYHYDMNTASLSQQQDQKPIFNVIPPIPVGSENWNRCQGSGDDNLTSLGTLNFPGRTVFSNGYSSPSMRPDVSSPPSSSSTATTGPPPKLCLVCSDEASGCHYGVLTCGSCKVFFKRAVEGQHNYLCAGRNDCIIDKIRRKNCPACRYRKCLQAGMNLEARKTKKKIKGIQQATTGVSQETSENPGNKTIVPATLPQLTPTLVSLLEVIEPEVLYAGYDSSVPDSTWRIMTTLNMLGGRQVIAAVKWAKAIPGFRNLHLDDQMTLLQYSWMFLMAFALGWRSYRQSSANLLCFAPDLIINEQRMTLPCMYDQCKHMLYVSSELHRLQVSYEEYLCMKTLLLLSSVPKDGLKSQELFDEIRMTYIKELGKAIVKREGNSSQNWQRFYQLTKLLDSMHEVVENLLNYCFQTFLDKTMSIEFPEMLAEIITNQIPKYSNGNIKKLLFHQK
The test can be described thus: Ligand binding assay (GR BIND). How it is done:
• Materials: • Binding Buffer: TEGM (10 mM Tris-HCl, 1 mM EDTA, 10% glycerol, 1 mM beta-mecaptoethanol, 10 mM Sodium Molybdate, pH 7.2) • 50% HAP Slurry: Calbiochem Hydroxylapatite, Fast Flow, in 10 mM Tris, pH 8.0 and 1 mM EDTA. • Wash Buffer: 40 mM Tris, pH7.5, 100 mM KCl, 1 mM EDTA and 1 mM EGTA.
Phenol red-free Trypsin-EDTA is diluted in the same PBS1:10. The cell layers are rinsed with 1× Trypsin, extra Trypsin is poured out, and the cell layers are incubated at 37° C. for ˜2 min. The flask is tapped and checked for signs of cell detachment. Once the cells begin to slide off the flask, the complete media is added. The cells are counted at this point, then diluted to the appropriate concentration and split into flasks or dishes for further culturing (Usually 1:3 to 1:6 dilution).
When the cells are 70 to 85% confluent, they are detached as described above, and collected by centrifuging at 1000 g for 10 minutes at 4° C. The cell pellet is washed twice with TEGM (10 mM Tris-HCl, 1 mM EDTA, 10% glycerol, 1 mM beta-mercaptoethanol, 10 mM Sodium Molybdate, pH 7.2). After the final wash, the cells are resuspended in TEGM at a concentration of 10^7 cells/mL. The cell suspension is snap frozen in liquid nitrogen or ethanol/dry ice bath and transferred to −80° C. freezer on dry ice. Before setting up the binding assay, the frozen samples are left on ice-water to just thaw (˜1 hr). Then the samples are centrifuged at 12,500 g to 20,000 g for 30 min at 4° C. The supernatant is used to set-up assay right away. If using 50 μL of supernatant, the test compound can be prepared in 50 μL of the TEGM buffer.
1×TEGM buffer is prepared, and the isotope-containing assay mixture is prepared in the following order: EtOH (2% final concentration in reaction), 3H-DEX (Amersham Biosciences) and 1×TEGM. [e.g. For 100 samples, 200 μL (100×2) of EtOH+4.25 μL of 1:10 ^3H—Dex stock+2300 μL (100×23) 1×TEGM]. The compound is serially diluted, e.g., if starting final conc. is 1 μM, and the compound is in 25 μL of solution, for duplicate samples, 75 μL of 4×1 μM solution is made and 3 μL of 100 μM is added to 72 μL of buffer, and 1:5 serial dilution.
25 μL of ^3H-DEX (6 nM) trace and 25 μL compound solution are first mixed together, followed by addition of 50 μL receptor solution. The reaction is gently mixed, spun briefly at about 200 rpm and incubated at 4° C. overnight. 100 μL of 50% HAP slurry is prepared and added to the incubated reaction which is then vortexed and incubated on ice for 5 to 10 minutes. The reaction mixture is vortexed twice more to resuspend HAP while incubating reaction. The samples in 96-well format are then washed in wash buffer using The FilterMate™ Universal Harvester plate washer (Packard). The washing process transfers HAP pellet containing ligand-bound expressed receptor to Unifilter-96 GF/B filter plate (Packard). The HAP pellet on the filter plate is incubated with 50 μL of MICROSCINT (Packard) scintillint for 30 minutes before being counted on the TopCount microscintillation counter (Packard). […] are calculated using DEX as a reference.

SMILES strings stand for the structures.

Usually Ki stands for a dissociation constant, usually derived from enzyme kinetics or from competition with a known ligand. Take `Cn1cc(S(=O)(=O)N(CCc2ccccc2F)C[C@H]2CCC3=Cc4c(cnn4-c4ccc(F)cc4)C[C@@]32C)c(C(F)(F)F)n1` [Example 98, N-[2-(2-fluorophenyl)ethyl]-N-{[(4αR,5S)-1-(4-fluorophenyl)-4α-methyl-1,4,4α,5,6,7-hexahydrocyclopenta[f]indazol-5-yl]methyl}-1-methyl-3-(trifluoromethyl)-1H-pyrazole-4-sulfonamide]: the affinity corresponds to a Ki of 1.5 nM.

Take `C[C@]12Cc3cnn(-c4ccc(F)cc4)c3C=C1CC[C@@H]2CN(CCc1ccccc1F)S(=O)(=O)c1ccccc1C(F)(F)F` [Example 99, N-[2-(2-fluorophenyl)ethyl]-N-{[(4αR,5S)-1-(4-fluorophenyl)-4α-methyl-1,4,4α,5,6,7-hexahydrocyclopenta[f]indazol-5-yl]methyl}-2-(trifluoromethyl)benzenesulfonamide]: the Ki stood at 1.4 nM. Next, `C[C@]12Cc3cnn(-c4ccc(F)cc4)c3C=C1CC[C@@H]2CN(CCc1ccccc1F)S(=O)(=O)c1ccccc1Cl` [Example 100, 2-chloro-N-[2-(2-fluorophenyl)ethyl]-N-{[(4αR,5S)-1-(4-fluorophenyl)-4α-methyl-1,4,4α,5,6,7-hexahydrocyclopenta[f]indazol-5-yl]methyl}benzenesulfonamide]: 2.1 nM; `CCCCS(=O)(=O)N(CCc1ccccc1F)C[C@H]1CCC2=Cc3c(cnn3-c3ccc(F)cc3)C[C@@]21C` [Example 102, N-[2-(2-fluorophenyl)ethyl]-N-{[(4αR,5S)-1-(4-fluorophenyl)-4α-methyl-1,4,4α,5,6,7-hexahydrocyclopenta[f]indazol-5-yl]methyl}butane-1-sulfonamide]: 2.6 nM; `CC(C)CS(=O)(=O)N(CCc1ccccc1F)C[C@H]1CCC2=Cc3c(cnn3-c3ccc(F)cc3)C[C@@]21C` [Example 103, N-[2-(2-fluorophenyl)ethyl]-N-{[(4αR,5S)-1-(4-fluorophenyl)-4α-methyl-1,4,4α,5,6,7-hexahydrocyclopenta[f]indazol-5-yl]methyl}-2-methylpropane-1-sulfonamide]: 1.7 nM. The compound `CCCCCCCCS(=O)(=O)N(CCc1ccccc1F)C[C@H]1CCC2=Cc3c(cnn3-c3ccc(F)cc3)C[C@@]21C` [Example 104, N-[2-(2-fluorophenyl)ethyl]-N-{[(4αR,5S)-1-(4-fluorophenyl)-4α-methyl-1,4,4α,5,6,7-hexahydrocyclopenta[f]indazol-5-yl]methyl}octane-1-sulfonamide] gave a Ki of 9.8 nM. `C[C@]12Cc3cnn(-c4ccc(F)cc4)c3C=C1CC[C@@H]2CN(CCc1ccccc1F)S(=O)(=O)Cc1ccc(Cl)cc1Cl` [Example 105, 1-(2,4-dichlorophenyl)-N-[2-(2-fluorophenyl)ethyl]-N-{[(4αR,5S)-1-(4-fluorophenyl)-4α-methyl-1,4,4α,5,6,7-hexahydrocyclopenta[f]indazol-5-yl]methyl}methanesulfonamide] yielded an inhibition constant (Ki) of 1.7 nM.

In the case of `C[C@]12Cc3cnn(-c4ccc(F)cc4)c3C=C1CC[C@@H]2CN(CCc1ccccc1F)S(=O)(=O)Cc1cccc(Cl)c1` [Example 106, 1-(3-chlorophenyl)-N-[2-(2-fluorophenyl)ethyl]-N-{[(4αR,5S)-1-(4-fluorophenyl)-4α-methyl-1,4,4α,5,6,7-hexahydrocyclopenta[f]indazol-5-yl]methyl}methanesulfonamide], the Ki turned out to be 1.7 nM.

In turn, `C[C@]12Cc3cnn(-c4ccc(F)cc4)c3C=C1CC[C@@H]2CN(CCc1ccccc1F)S(=O)(=O)Cc1ccccc1Cl` [Example 107, 1-(2-chlorophenyl)-N-[2-(2-fluorophenyl)ethyl]-N-{[(4αR,5S)-1-(4-fluorophenyl)-4α-methyl-1,4,4α,5,6,7-hexahydrocyclopenta[f]indazol-5-yl]methyl}methanesulfonamide] registered a Ki of 1.8 nM.

As to `C[C@]12Cc3cnn(-c4ccc(F)cc4)c3C=C1CC[C@@H]2CN(CCc1ccccc1F)S(=O)(=O)Cc1ccccc1C(F)(F)F` [Example 108, N-[2-(2-fluorophenyl)ethyl]-N-{[(4αR,5S)-1-(4-fluorophenyl)-4α-methyl-1,4,4α,5,6,7-hexahydrocyclopenta[f]indazol-5-yl]methyl}-1-[2-(trifluoromethyl)phenyl]methanesulfonamide], affinity was put at a Ki of 2.3 nM. With `CC(C1CCC2=Cc3c(cnn3-c3ccc(F)cc3)C[C@@]21C)N(CC1CC1)S(=O)(=O)CC(F)(F)F` (stereo partly drawn) [Example 109, N-(cyclopropylmethyl)-2,2,2-trifluoro-N-{1-[(4αR)-1-(4-fluorophenyl)-4α-methyl-1,4,4α,5,6,7-hexahydrocyclopenta[f]indazol-5-yl]ethyl}ethanesulfonamide], the inhibition constant (Ki) worked out at 2.1 nM. Compound `C[C@]12Cc3cnn(-c4ccc(F)cc4)c3C=C1CC[C@@H]2CN(CC1CCCO1)S(=O)(=O)Cc1cccc(C(F)(F)F)c1` (stereo partly drawn) [Example 110, N-{[(4αR,5S)-1-(4-fluorophenyl)-4α-methyl-1,4,4α,5,6,7-hexahydrocyclopenta[f]indazol-5-yl]methyl}-N-(tetrahydrofuran-2-ylmethyl)-1-[3-(trifluoromethyl)phenyl]methanesulfonamide] returned a Ki of 1.4 nM. In the case of `C[C@]12Cc3cnn(-c4ccc(F)cc4)c3C=C1CC[C@@H]2CN(CCc1ccccc1F)S(=O)(=O)Cc1ccc(Cl)c(Cl)c1` [Example 111, 1-(3,4-dichlorophenyl)-N-[2-(2-fluorophenyl)ethyl]-N-{[(4αR,5S)-1-(4-fluorophenyl)-4α-methyl-1,4,4α,5,6,7-hexahydrocyclopenta[f]indazol-5-yl]methyl}methanesulfonamide] it was 1.8 nM; in that of `C[C@H](O)CN(C[C@H]1CCC2=Cc3c(cnn3-c3ccc(F)cc3)C[C@@]21C)S(=O)(=O)c1ccc(F)c(Cl)c1` [Example 112, 3-chloro-4-fluoro-N-{[(4αR,5S)-1-(4-fluorophenyl)-4α-methyl-1,4,4α,5,6,7-hexahydrocyclopenta[f]indazol-5-yl]methyl}-N-[(2S)-2-hydroxypropyl]benzenesulfonamide], 1.7 nM; in that of `C[C@H](O)CN(C[C@H]1CCC2=Cc3c(cnn3-c3ccc(F)cc3)C[C@@]21C)S(=O)(=O)CC(F)(F)F` [Example 113], 2.2 nM. In the case of `C[C@@H](CN(C[C@H]1CCC2=Cc3c(cnn3-c3ccc(F)cc3)C[C@@]21C)S(=O)(=O)CC(F)(F)F)OS(=O)(=O)CC(F)(F)F` [Example 114, (1S)-2-{{[(4αR,5S)-1-(4-fluorophenyl)-4α-methyl-1,4,4α,5,6,7-hexahydrocyclopenta[f]indazol-5-yl]methyl}[(2,2,2-trifluoroethyl)sulfonyl]amino}-1-methylethyl 2,2,2-trifluoroethanesulfonate], the Ki was found to be 0.8 nM.
